Measured values reported in patent US20230002393A1, “CDK KINASE INHIBITOR” (BEIJING BENICALL BIOTECH CO., LTD., priority 2019, published 2023).

How the values were obtained:
[1] = molecular target: T1, CDK6/CyclinD1 (Homo sapiens, UniProt Q00534); assay: In vitro cell-free CDK6/CyclinD1 kinase activity assay (TR-FRET); format: biochemical; settings: ATP at Km
T1 construct: purchased Carna 04-114
Procedure: It should be noted that the assay can also be conducted by a similar method. The assay steps in this Test Example are as follows:
The CDK6/CyclinD1 kinase activity was determined using a time-resolved fluorescence resonance energy transfer (TR-FRET) method. Measurements were performed in a reaction volume of 20 μL using 384-well assay plates. […] The reaction was stopped by adding a mixture of a peptide antibody (trade name: Cisbio, product No. 64CUSKAY) and Sa-XL665 (trade name: Cisbio, product No. 610SAXLB) diluted in HTRF KinEASE detection buffer (trade name: Cisbio, product No. 62SDBRDF, containing EDTA). After the mixture was incubated for 1 hour at room temperature, the plate was read. The TR-FRET signal was measured on a multimode plate reader (EnVision™, a multi-function microplate detector, PerkinElmer) at an excitation wavelength (λEx) of 330 nm and detection wavelengths (λEm) of 615 and 665 nm. The activity was determined by the ratio of fluorescence at 665 nm to that at 615 nm. For each compound, the enzyme activities of different concentrations of the compound were measured to determine IC50. The negative control contained no inhibitor. Two no-enzyme controls were used to determine baseline fluorescence levels. IC50 was obtained by fitting using the GraphPad 6.02 software.
8-10 concentrations were prepared for each compound, and formulated in DMSO. The stock concentration was 200× the working concentration. For example, if the working concentration was 100 nM, the corresponding concentration of the formulated stock solution was 20 μM.
In the analysis of in vitro inhibitory activity on CDK kinase, the IC50 value of each of the Example compounds and Reference Example compounds was determined.

[2] = tested on: MCF-7 cells; assay: Cell viability assay, MCF-7 cells (CellTiter-Glo, 168 h); format: cell-based; settings: Homo sapiens, MCF7
Procedure: An in vitro cell viability assay was conducted using some Example compounds following the steps below:
1. After recovery, MCF-7 cells (obtained from the Shanghai Cell Bank of the Chinese Academy of Sciences) were cultured at 37° C., 5% CO2, and 95% humidity.
2. 8 compound solutions at different concentrations were prepared for each Example compound. 50 μL of the compound solution at each concentration was added to a 96-well black plate.
3. The cell concentration was adjusted to about 30,000 cells/mL. 100 μL of the cell suspension was added to the 96-well plate, and mixed well to a final cell density of about 3,000 cells/well.
4. The 96-well plate was incubated at 37° C., 5% CO2, and 95% humidity for 168 h, i.e., 7 days.
5. The cell survival rate was measured by the method of CellTiter-Glo® Luminescent Cell Viability Assay (Promega, Cat #G7572). The fluorescence data were read on a microplate reader (EnVision™, a multi-function microplate detector, PerkinElmer).
6. The obtained fluorescence data were analyzed using the GraphPad Prism software. The cell survival rate was calculated for each Example compound at each concentration, and the IC50 interval of each Example compound was determined.

T1 sequence (Q00534 whole entry): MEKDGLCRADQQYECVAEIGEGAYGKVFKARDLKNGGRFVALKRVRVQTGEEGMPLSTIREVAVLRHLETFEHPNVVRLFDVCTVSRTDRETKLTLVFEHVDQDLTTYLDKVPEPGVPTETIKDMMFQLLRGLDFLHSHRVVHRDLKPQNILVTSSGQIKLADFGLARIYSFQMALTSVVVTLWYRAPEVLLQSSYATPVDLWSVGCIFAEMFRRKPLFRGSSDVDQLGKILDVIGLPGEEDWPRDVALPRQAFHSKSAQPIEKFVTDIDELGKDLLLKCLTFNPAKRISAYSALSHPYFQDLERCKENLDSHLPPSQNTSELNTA
T1 sequence (P24385 whole entry partner): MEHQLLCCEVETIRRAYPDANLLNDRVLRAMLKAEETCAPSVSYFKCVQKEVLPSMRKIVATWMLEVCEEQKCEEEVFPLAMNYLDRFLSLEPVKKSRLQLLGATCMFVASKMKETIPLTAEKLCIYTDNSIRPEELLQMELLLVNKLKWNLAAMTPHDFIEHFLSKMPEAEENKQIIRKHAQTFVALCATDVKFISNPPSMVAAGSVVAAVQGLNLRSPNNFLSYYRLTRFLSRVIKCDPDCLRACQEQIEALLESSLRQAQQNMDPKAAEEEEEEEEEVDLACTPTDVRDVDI

Compound	IC50 [1]	IC50 [2]
CN(C)C(=O)c1cc2cnc(Nc3ccc(N4CCN(C5CC5)CC4)cn3)nn2c1C1=CCCC1 [Example 109]	< 100 nM	< 500 nM
Cc1cc(-c2cc3cnc(Nc4ccc(N5CCN(C)CC5)cn4)nn3c2C2=CCCC2)ccn1 [Example 110]	< 100 nM	< 500 nM
C1=C(c2c(-c3cnco3)cc3cnc(Nc4ccc(N5CCNCC5)cn4)nn23)CCC1 [Example 111]	< 100 nM	< 500 nM
[2H]C([2H])([2H])N(C(=O)c1cc2cnc(Nc3ccc(N4CCNCC4)cn3)nn2c1C1=CCCC1)C([2H])([2H])[2H] [Example 112]	< 100 nM	< 500 nM
[2H]C([2H])([2H])N(C(=O)c1cc2cnc(Nc3ccc(N4CCN(C)CC4)cn3)nn2c1C1=CCCC1)C([2H])([2H])[2H] [Example 113]	< 100 nM	< 500 nM
[2H]C([2H])([2H])N1CCN(c2ccc(Nc3ncc4cc(C(=O)N(C([2H])([2H])[2H])C([2H])([2H])[2H])c(C5=CCCC5)n4n3)nc2)CC1 [Example 114]	< 100 nM	< 500 nM
[2H]C([2H])([2H])N(C(=O)c1cc2cnc(Nc3ccc(N4CCN(C([2H])([2H])C([2H])([2H])[2H])CC4)cn3)nn2c1C1=CCCC1)C([2H])([2H])[2H] [Example 115]	< 100 nM	< 500 nM
[2H]C([2H])([2H])N(C(=O)c1cc2cnc(Nc3ccc(N4CCNCC4)cn3)nn2c1-c1ccccc1)C([2H])([2H])[2H] [Example 116]	< 100 nM	< 500 nM
[2H]C([2H])([2H])N(C(=O)c1cc2cnc(Nc3ccc(N4CCNCC4)cn3)nn2c1-c1ccc(OC)cc1)C([2H])([2H])[2H] [Example 117]	< 100 nM	< 500 nM
[2H]C([2H])([2H])N(C(=O)c1cc2cnc(Nc3ccc(N4CCN(CC)CC4)cn3)nn2c1C1=CCCC1)C([2H])([2H])[2H] [Example 118]	< 100 nM	< 500 nM
[2H]C([2H])([2H])N(C(=O)c1cc2cnc(Nc3ccc(N4CCN(C)CC4)cn3)nn2c1C1=CCOCC1)C([2H])([2H])[2H] [Example 119]	< 100 nM	< 500 nM
[2H]C([2H])([2H])N(C(=O)c1cc2cnc(Nc3ccc(N4CCN(C)CC4)cn3)nn2c1-c1ccccc1)C([2H])([2H])[2H] [Example 120]	< 100 nM	< 500 nM
[2H]C([2H])([2H])N(C(=O)c1cc2cnc(Nc3ccc(N4CCN(C)CC4)cn3)nn2c1-c1ccc(OC)cc1)C([2H])([2H])[2H] [Example 121]	< 100 nM	< 500 nM
[2H]C([2H])([2H])N(C(=O)c1cc2cnc(Nc3ccc(N4CCNCC4)cn3)nn2c1C1=CCOCC1)C([2H])([2H])[2H] [Example 122]	< 100 nM	< 500 nM
[2H]C([2H])([2H])N1CCN(c2ccc(Nc3ncc4cc(C(=O)N(C([2H])([2H])[2H])C([2H])([2H])[2H])c(-c5ccccc5)n4n3)nc2)CC1 [Example 123]	< 100 nM	< 500 nM
[2H]C([2H])([2H])N1CCN(c2ccc(Nc3ncc4cc(C(=O)N(C([2H])([2H])[2H])C([2H])([2H])[2H])c(-c5ccc(OC)cc5)n4n3)nc2)CC1 [Example 124]	< 100 nM	< 500 nM
[2H]C([2H])([2H])N1CCN(c2ccc(Nc3ncc4cc(C(=O)N(C([2H])([2H])[2H])C([2H])([2H])[2H])c(-c5ccc(F)cc5)n4n3)nc2)CC1 [Example 125]	< 100 nM	< 500 nM
[2H]C([2H])([2H])N1CCN(c2ccc(Nc3ncc4cc(-c5cnn(C)c5)c(C5=CCCC5)n4n3)nc2)CC1 [Example 126]	< 100 nM	< 500 nM
[2H]C([2H])([2H])N1CCN(c2ccc(Nc3ncc4cc(C(=O)N(C([2H])([2H])[2H])C([2H])([2H])[2H])c(-c5ccc(Cl)cc5)n4n3)nc2)CC1 [Example 127]	< 100 nM	< 500 nM
CP(C)(=O)c1ccc(Nc2ncc3cc(C#N)c(Br)n3n2)cc1 [Reference Example 128, reference compound]	1000 to 3000 nM	> 10000 nM
Cc1noc(C)c1-c1c(-c2cnn(C)c2)c(-c2c(C)noc2C)n2nc(Nc3ccc(N4CCNCC4)cn3)ncc12 [Reference Example 131, reference compound]	> 3000 nM	> 10000 nM
COC(=O)c1cc2cnc(Nc3ccc(N4CCNCC4)cn3)nn2c1-c1cccc2cccnc12 [Reference Example 132, reference compound]	> 3000 nM	> 10000 nM
COC(=O)c1cc2cnc(Nc3ccc(N4CC5(CNC5)C4)cn3)nn2c1-c1cccc2cccnc12 [Reference Example 133, reference compound]	> 3000 nM	> 10000 nM
Cc1noc(C)c1-c1c(C(=O)N(C)C)cc2cnc(Nc3ccc(N4CC5(CCNC5)C4)cn3)nn12 [Reference Example 134, reference compound]	1000 to 3000 nM	> 10000 nM
